Type in all cases: biochemical
For one assay, the target named is KIT (Homo sapiens, UniProt P10721). As to the kind of experiment: Kinome profiling KIT. As to conditions: read-out: Inhibitory activity KIT; for inhibition at 0.1 µM: 100 nM. The method, then: (§1) . The kinome-wide selectivity was determined following the methods previously reported by Mohedas et al., ACS Chem Biol 2013, 8, 1291-1302 and Sanvitale et al., PLoS One 2013, 8, e62721.

The next assay has as its target PTK5 (Homo sapiens, UniProt P42685). The assay can be described thus: Kinome profiling PTK5. The following applies: read-out: Inhibitory activity PTK5; for inhibition at 0.1 µM: 100 nM. The method, then:
as §1

The next assay addresses T1, P38γ (Homo sapiens, UniProt P53778).
T1 sequence (P53778 1-367): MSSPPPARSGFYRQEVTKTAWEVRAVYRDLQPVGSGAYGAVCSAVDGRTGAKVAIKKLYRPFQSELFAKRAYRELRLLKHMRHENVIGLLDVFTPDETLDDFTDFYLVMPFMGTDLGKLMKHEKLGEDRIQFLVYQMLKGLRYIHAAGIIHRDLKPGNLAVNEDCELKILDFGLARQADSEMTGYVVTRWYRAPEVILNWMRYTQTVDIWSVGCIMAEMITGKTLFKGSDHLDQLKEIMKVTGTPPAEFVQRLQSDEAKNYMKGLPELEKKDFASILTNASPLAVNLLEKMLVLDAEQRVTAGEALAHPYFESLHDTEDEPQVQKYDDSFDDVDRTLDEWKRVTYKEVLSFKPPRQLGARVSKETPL
As to the kind of experiment: Kinome profiling P38γ. The following applies: read-out: Inhibitory activity P38γ; for inhibition at 0.1 µM: 100 nM. The procedure: as §1

The next assay concerns the target T2, PRKD1 (Homo sapiens, UniProt Q15139).
T2 sequence (Q15139 1-912): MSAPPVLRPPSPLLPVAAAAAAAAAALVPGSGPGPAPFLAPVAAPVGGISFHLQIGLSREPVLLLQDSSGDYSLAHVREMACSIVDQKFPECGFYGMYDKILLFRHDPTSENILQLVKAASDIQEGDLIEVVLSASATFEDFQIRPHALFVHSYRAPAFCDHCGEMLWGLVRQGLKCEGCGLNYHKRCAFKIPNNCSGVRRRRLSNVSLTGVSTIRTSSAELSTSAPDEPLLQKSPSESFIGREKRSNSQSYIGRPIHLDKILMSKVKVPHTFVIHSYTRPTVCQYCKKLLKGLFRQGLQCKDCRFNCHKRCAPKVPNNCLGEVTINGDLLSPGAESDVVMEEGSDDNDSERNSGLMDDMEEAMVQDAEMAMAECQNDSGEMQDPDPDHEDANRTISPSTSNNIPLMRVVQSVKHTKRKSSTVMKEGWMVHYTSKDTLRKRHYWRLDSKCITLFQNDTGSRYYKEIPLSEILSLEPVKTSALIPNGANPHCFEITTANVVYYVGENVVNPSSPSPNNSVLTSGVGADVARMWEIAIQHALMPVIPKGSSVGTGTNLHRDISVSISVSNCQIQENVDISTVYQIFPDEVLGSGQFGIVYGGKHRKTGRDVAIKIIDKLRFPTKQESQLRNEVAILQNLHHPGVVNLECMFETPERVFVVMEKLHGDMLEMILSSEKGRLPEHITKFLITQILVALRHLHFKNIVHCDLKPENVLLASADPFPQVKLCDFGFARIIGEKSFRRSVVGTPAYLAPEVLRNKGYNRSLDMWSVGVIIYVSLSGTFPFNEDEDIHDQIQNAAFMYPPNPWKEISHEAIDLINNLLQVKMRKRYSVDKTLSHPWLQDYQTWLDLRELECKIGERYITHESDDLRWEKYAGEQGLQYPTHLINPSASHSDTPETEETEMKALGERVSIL
The assay can be described thus: Kinome profiling PRKD1. As to conditions: read-out: Inhibitory activity PRKD1; for inhibition at 0.1 µM: 100 nM. The method, then:
as §1

In a further assay the target is T3, TSSK1 (Homo sapiens, UniProt Q9BXA7).
T3 sequence (Q9BXA7 1-367): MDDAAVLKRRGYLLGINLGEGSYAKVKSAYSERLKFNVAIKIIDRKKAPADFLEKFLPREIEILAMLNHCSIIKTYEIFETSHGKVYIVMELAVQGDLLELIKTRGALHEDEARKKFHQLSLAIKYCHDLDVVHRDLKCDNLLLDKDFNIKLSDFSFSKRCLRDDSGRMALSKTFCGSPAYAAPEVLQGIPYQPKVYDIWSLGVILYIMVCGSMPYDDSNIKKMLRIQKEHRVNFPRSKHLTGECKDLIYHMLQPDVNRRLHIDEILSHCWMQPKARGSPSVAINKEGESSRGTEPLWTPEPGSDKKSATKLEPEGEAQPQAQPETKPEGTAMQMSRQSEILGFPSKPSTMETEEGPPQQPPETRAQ
The assay can be described thus: Kinome profiling TSSK1. The following applies: read-out: Inhibitory activity TSSK1; for inhibition at 0.1 µM: 100 nM. The procedure:
as §1

A further assay deals with PAK1 (Homo sapiens, UniProt Q13153). The assay can be described thus: Kinome profiling PAK1. As to conditions: read-out: Inhibitory activity PAK1; for inhibition at 0.1 µM: 100 nM. The method, then:
as §1

The target of the next assay is T4, ARK5 (Homo sapiens, UniProt O60285).
T4 sequence (O60285 1-661): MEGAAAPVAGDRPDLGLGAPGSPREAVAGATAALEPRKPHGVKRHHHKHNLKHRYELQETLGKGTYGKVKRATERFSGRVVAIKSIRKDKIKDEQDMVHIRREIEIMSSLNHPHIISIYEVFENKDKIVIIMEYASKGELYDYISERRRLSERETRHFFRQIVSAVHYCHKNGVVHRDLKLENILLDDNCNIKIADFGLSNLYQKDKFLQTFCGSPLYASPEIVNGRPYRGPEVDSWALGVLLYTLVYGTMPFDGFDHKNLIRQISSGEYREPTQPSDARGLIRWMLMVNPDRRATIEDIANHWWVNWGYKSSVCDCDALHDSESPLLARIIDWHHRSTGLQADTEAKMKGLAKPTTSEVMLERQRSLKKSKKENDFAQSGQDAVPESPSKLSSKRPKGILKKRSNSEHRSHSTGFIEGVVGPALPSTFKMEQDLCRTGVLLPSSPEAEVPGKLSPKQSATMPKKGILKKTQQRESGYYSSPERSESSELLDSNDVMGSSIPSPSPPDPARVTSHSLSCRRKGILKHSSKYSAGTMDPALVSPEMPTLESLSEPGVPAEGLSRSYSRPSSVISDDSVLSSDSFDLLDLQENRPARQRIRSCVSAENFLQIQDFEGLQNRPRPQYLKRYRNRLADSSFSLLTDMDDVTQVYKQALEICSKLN
The assay can be described thus: Kinome profiling ARK5. As to conditions: read-out: Inhibitory activity ARK5; for inhibition at 0.1 µM: 100 nM. The procedure:
as §1

KIT, sequence (P10721 26-976): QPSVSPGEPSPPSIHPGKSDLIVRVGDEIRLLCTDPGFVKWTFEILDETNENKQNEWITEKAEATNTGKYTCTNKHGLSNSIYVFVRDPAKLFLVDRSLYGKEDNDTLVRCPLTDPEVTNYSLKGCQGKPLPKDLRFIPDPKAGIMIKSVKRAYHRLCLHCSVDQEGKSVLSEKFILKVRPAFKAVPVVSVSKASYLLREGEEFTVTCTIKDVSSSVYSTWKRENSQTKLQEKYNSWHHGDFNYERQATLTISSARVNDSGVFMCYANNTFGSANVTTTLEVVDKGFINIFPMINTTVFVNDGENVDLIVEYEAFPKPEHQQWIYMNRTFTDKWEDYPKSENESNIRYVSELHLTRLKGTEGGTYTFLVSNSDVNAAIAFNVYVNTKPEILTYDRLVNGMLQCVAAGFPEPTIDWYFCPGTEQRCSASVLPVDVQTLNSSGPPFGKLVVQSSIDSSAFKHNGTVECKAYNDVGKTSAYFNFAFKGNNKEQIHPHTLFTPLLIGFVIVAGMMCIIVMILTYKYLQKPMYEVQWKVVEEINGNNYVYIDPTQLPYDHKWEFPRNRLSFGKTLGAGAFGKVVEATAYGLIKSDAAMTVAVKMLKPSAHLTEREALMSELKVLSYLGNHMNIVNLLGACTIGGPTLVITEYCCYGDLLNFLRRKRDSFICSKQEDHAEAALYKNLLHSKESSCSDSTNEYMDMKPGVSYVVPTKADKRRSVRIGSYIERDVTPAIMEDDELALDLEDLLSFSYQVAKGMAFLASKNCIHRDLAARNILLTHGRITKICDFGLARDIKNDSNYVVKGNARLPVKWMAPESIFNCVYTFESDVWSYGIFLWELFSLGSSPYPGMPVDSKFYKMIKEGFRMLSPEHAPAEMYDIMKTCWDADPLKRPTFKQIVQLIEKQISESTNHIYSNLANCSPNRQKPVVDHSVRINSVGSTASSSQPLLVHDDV
PTK5, sequence (P42685 whole entry): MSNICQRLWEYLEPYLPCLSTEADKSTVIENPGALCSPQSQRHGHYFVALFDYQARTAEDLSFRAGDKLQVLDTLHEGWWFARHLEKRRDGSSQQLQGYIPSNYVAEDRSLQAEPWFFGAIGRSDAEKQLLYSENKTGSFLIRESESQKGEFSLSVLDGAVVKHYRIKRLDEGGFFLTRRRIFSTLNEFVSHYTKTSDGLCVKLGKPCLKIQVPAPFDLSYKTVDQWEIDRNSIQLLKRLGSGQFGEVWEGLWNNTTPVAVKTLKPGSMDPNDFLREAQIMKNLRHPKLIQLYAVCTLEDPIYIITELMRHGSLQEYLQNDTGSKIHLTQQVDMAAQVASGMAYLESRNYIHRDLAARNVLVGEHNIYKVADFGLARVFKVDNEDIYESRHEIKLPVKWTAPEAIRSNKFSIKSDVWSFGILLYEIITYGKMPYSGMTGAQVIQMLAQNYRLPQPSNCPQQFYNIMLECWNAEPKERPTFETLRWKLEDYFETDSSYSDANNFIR
PAK1, sequence (Q13153 whole entry): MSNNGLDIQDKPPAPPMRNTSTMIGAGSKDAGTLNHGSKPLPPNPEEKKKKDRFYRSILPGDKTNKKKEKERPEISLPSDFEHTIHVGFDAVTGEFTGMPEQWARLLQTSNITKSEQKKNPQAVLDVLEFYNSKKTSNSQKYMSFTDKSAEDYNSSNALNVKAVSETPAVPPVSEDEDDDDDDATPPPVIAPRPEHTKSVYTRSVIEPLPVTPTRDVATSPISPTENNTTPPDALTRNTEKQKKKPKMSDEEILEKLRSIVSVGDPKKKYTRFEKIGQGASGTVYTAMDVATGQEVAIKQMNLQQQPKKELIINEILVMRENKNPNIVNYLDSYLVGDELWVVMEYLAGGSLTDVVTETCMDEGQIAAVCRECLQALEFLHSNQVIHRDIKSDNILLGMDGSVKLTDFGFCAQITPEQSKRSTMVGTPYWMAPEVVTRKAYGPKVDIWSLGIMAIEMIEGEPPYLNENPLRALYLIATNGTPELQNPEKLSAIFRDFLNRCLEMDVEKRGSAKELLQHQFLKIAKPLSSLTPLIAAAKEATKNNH

Take `COc1cc(-c2cc(-c3ccc(N4CCNCC4)cc3)cnc2N)cc(OC)c1OC` [Compound 15, 5-(4-(piperazin-1-yl)phenyl)-3-(3,4,5-trimethoxyphenyl)pyridin-2-amine]: the inhibition at 0.1 µM is 5% at KIT; 17% on PTK5; 2% on P38γ; 11% at PRKD1; 1% on TSSK1; 0% at PAK1. On ARK5, the inhibition at 0.1 µM worked out at 2%. The inhibition at 1 µM at KIT is 22%; at PTK5 it was 66%; at P38γ it was 1%; on PRKD1, 50%; at TSSK1 it was 5%; at PAK1, 6%. Moreover, the inhibition at 1 µM at ARK5 was determined as 8%.

In the case of `COc1cc(-c2cc(-c3ccc(N4CCNCC4)cc3)cnc2C)cc(OC)c1OC` [Compound 10, 1-(4-(6-methyl-5-(3,4,5-trimethoxyphenyl)pyridin-3-yl)phenyl)piperazine], the inhibition at 0.1 µM at KIT is 5%; on PTK5, 1%; at P38γ it was -2%; on PRKD1, 4%; on TSSK1 it was 2%; at PAK1, 2%. Also, on ARK5, the inhibition at 0.1 µM was found to be 1%. For the same compound, the inhibition at 1 µM on KIT amounted to 12%; at PTK5, 11%; on P38γ it was 1%; on PRKD1, 23%; at TSSK1, 2%; at PAK1, 3%. Also, at ARK5, the inhibition at 1 µM was 1%.

These data come from US20170190705A1, “Compositions and Methods for Inhibiting BMP” (THE BRIGHAM AND WOMAN'S HOSPITAL, INC., priority 2014, published 2017).
